Results taken from article PMC10254852, “Design, Synthesis and Anticancer Evaluation of Nitroimidazole Radiosensitisers” (Molecules, 2023).
≈ marks a conversion by molar mass, not a printed value. Like-named read-outs stand apart in the source and are kept apart here.

Experiments:
FaDu cells = assay: In vitro cytotoxicity, 4 h exposure oxic/anoxic, 5-day regrowth, sulforhodamine B; type: cell-based; conditions: for IC50: Homo sapiens, 4 h exposure, mean ± SEM; for HCR: IC50(oxic)/IC50(anoxic)
Excerpt: (§1) This allowed derivation of hypoxia cytotoxicity ratios (HCR) as IC50(oxic)/IC50(anoxic) in an HCT116 subclone HCT116/54C and two HNSCC cell lines, FaDu and UT-SCC-74B (Table 2).
(§2) HCT116/54C is an HCT116 subline that originated from a mixed culture with UT-SCC-54C cells, which was supplied alongside UT-SCC-74B by Prof. Bradly Wouters (University Health Network, Toronto, ON, Canada). HCT116/54C and UT-SCC-74B cells were passaged in minimum essential media (MEM, ThermoFisher Scientific, Waltham, MA, USA) with 10% foetal calf serum (FCS, Moregate Biotech, Hamilton, New Zealand), 4.5 mg/mL D-glucose (Sigma-Aldrich, St. Louis, MO, USA) and 20 mM HEPES (Sigma-Aldrich). FaDu cells were sourced from American Type Culture Collection and cultured in αMEM (ThermoFisher Scientific) with 10% FCS. All cell lines were confirmed mycoplasma-free by PlasmoTest (InvivoGen, San Diego, CA, USA) and were derived from STR-authenticated cryopreserved stocks. Log-phase cells were seeded into 96-well plates at 800 cells/well for HCT116/54C and 1500 cells/well for FaDu. […] After drug washout, cells were grown and stained as for the oxic IC50 assays. The hypoxic cytotoxicity ratio HCR was determined as HCR = IC50(oxic)/IC50(anoxic).

[1] = Stability in αMEM culture medium (HPLC after 24 h); type: physicochemical; conditions: after 24 h incubation at 37 °C
Description: The stability of the same solutions after 24 h incubation at 37 °C was measured by HPLC analysis.

[2] = Solubility in αMEM culture medium (HPLC of saturated solutions); type: physicochemical; conditions: αMEM culture medium with 5% foetal calf serum and 1% DMSO, plasma or biological fluid, kinetic from dmso stock, α-MEM culture medium containing 5% foetal calf serum, 37 °C
HCT116/54C cells [3] = assay: In vitro radiosensitisation under anoxia, clonogenic survival; type: cell-based, human; conditions: compound 1 mM, radiation dose for 1% survival/radiation dose for 1% survival with compound, mean ± SEM
Description: Next, we evaluated in vitro radiosensitisation by using a representative subset of nitroimidazole compounds in HCT116/54C cells with a clonogenic survival endpoint. Radiosensitisation was determined by treating cells under anoxia with a range of radiation doses alone and with compounds at equimolar doses (1 mM). Sensitiser enhancement ratios (SER) were calculated as the ratio of radiation dose required for 1% clonogenic survival alone or with compound (Table 3).
Cells were seeded onto 96-well plates at 10^5 cells per well and allowed to attach for 2 h. […] The plates were irradiated (Eldorado 78 ^60Co teletherapy unit, ~2 Gy/min) with 15 Gy under anoxia at room temperature for SR experiments. A metal wedge placed on the top of the metal chamber was used to achieve a graduated radiation dose across the plate, varying from 7 to 29 Gy, calibrated by Fricke dosimetry with ammonium thiocyanate as previously described for SER experiments. The control plate (compound alone, no radiation) was left inside the anaerobic chamber at room temperature during the irradiation period. After treatment, the cells were trypsinized and suspended in usual media + 1% penicillin-streptomycin (ThermoFisher Scientific), and 10-fold serial dilutions were plated for clonogenic survival. After 10 days, plates were stained with methylene blue (2 g/L in EtOH/H2O, 1:1 v/v) and colonies with more than 50 cells were counted. The surviving fraction (SF) was determined as: SF = PE(irradiated)/PE(control) where the plating efficiency (PE) = (No. of colonies)/(No. of cells plated). SF was plotted against radiation dose. Survival ratios (SR) were calculated: SR = (cell survival with radiation)/(cell survival with drug + radiation). Sensitizer enhancement ratios (SER) were calculated: SER = (radiation dose for 1% survival without compound)/(radiation dose for 1% survival with compound).

HCT116/54C cells [4] = assay: In vitro cytotoxicity, 4 h exposure oxic/anoxic, 5-day regrowth, sulforhodamine B; type: cell-based, human; conditions: HCT116/54C; for HCR: IC50(oxic)/IC50(anoxic); for IC50: Homo sapiens, 4 h exposure, mean ± SEM, n = 3–4
Excerpt: as §1, §2

UT-SCC-74B cells = assay: as above; type: cell-based, human; conditions: for IC50: Homo sapiens, 4 h exposure, mean ± SEM; for HCR: IC50(oxic)/IC50(anoxic)
Excerpt: as §1, §2

[5] = parameters: method as in PMID 29253343; conditions: NIH-III mice, 2.2 mmol/kg i.v., cited from earlier work; for Cmax: read-out: Plasma Cmax
UT-SCC-74B tumours = assay: Tumour radiosensitisation: ex vivo clonogenic assay; type: in vivo, NIH-III mice; conditions: for Sensitisation Ratio: 2.2 mmol/kg i.v. 5 min prior to 10 Gy radiation, surviving fraction after radiation/surviving fraction after drug + radiation; for enhancement of tumour cell killing by radiotherapy (RAD vs drug + RAD): 2.2 mmol/kg i.v. + 10 Gy, one-way ANOVA
Description: (§3) Specific pathogen-free six- to eight-week-old female NIH-III mice, bred in the Vernon Jansen Unit, University of Auckland, were used for animal experiments. Animals had ad libitum access to food and water and were maintained in microisolator cages on a 12 h light/dark cycle. All treatments were administered by i.v. injection at a dose of 2.2 mmol/kg and injection volume of 10 mL/kg. Compounds 2, 34 and 38 were administered as solutions in saline containing 1% DMSO or for 9–12 as solutions in saline containing 2 molar equivalents of NaHCO3. Control animals received an i.v. injection of saline at 10 mL/kg. All animal experiments were conducted under the auspices of the University of Auckland Animal Ethics Committee (approval 1781).
(§4) Compounds were evaluated for in vivo radiosensitisation of hypoxic cells in HCT116/54C and UT-SCC-74B human tumour xenografts using clonogenic survival as an endpoint, using previously report methods. Tumours were grown subcutaneously on the flanks of NIH-III mice by injecting 5 × 10^6 HCT116/54C cells or UT-SCC-74B cells. Once tumours reached a volume of approximately 250 mm^3, mice were randomly assigned to 4 treatment groups and treated with: (A) vehicle control, (B) 10 Gy RAD only, (C) sensitiser only, or (D) sensitiser given before 10 Gy RAD. Drugs were administered as a single i.v. dose at 2.2 mmol/kg. […] Tumours were excised 18 h after treatment, and tumour cells were dissociated enzymatically and plated to determine the number of surviving (clonogenic) cells per gram of tumour tissue. SF and SR were calculated as described above. Statistical significance of drug effects was tested using one-way ANOVA with Sidak tests for multiple comparisons vs. radiation alone (Table 5).

HCT116/54C tumours = assay: as above; type: in vivo, NIH-III mice; conditions: for Sensitisation Ratio: 2.2 mmol/kg i.v. 5 min prior to 10 Gy radiation, surviving fraction after radiation/surviving fraction after drug + radiation; for enhancement of tumour killing of radiotherapy (RAD vs drug + RAD): 2.2 mmol/kg i.v. + 10 Gy, one-way ANOVA
Description: as §3, §4

[6] = parameters: method as in PMID 29253343; conditions: comparison values for earlier alcohols; cited from earlier work
[7] = system: HCT116/54C tumour xenografts; assay: Tumour growth inhibition in combination with radiation; type: in vivo, NIH-III mice; conditions: HCT116/54C tumours, fractionated radiation, p < 0.05
Description: as §3
Compounds were evaluated for their ability to inhibit tumour growth in combination with a single dose of radiation (10 Gy) in HCT116/54C or UT-SCC-74B tumour xenografts on the backs of NIH-III mice. In addition, a fractionated radiation schedule (5 Gy on Days 1, 7 and 14) was explored in HCT116/54C tumour xenografts. Mice were randomly assigned to 4 treatment groups and treated with: (A) vehicle control, (B) 10 Gy RAD only, (C) sensitiser only, or (D) sensitiser given 10 min before 10 Gy RAD. Drugs were administered by i.v. injection at 2.2 mmol/kg either as a single dose or three doses on Days 1, 7 and 14 in the fractionated study. Treatment commenced when the average tumour size reached approximately 250 mm^3, and tumour size was measured until study endpoint. Mice were placed in a custom-built lead-shielded jig that allowed irradiation of the whole tumour but shielded the mouse from radiation. Survival analysis represented the time taken for tumours to increase in relative tumour volume by 4× from the start of treatment (RTV^4). The significance of differences in activity between the groups was assessed by log-rank with Holm–Sidak multiple comparison analysis.

[8] = anoxic, n = 3–4, read-out: IC50 Anoxic
[9] = oxic, n = 3–4, read-out: IC50 Oxic
[10] = drug alone 2.2 mmol/kg i.v., relative to untreated tumours

Row | SMILES | % Stability in αMEM [1] [%] | solubility [2] [mM] | melting point [°C] | IC50 (FaDu cells; [8]) [mM] | IC50 (FaDu cells; [9]) [mM] | HCR (FaDu cells) | SER at 1 mM (HCT116/54C cells [3]) | HCR (HCT116/54C cells [4]) | IC50 (HCT116/54C cells [4]; anoxic, read-out: IC50 Anoxic) [mM] | IC50 (HCT116/54C cells [4]; oxic, read-out: IC50 Oxic) [mM] | IC50 (UT-SCC-74B cells; [8]) [mM] | IC50 (UT-SCC-74B cells; [9]) [mM] | HCR (UT-SCC-74B cells) | also measured
1 | O=[N+]([O-])c1nccn1CS(=O)(=O)NCCOP(=O)(O)O [Compound 9] |  |  |  |  |  |  |  |  |  |  |  |  |  | AUC [5]: 550 µM·h; T1/2 [5]: 2.33 h; Cmax [5]: 920 µM; Sensitisation Ratio (UT-SCC-74B tumours): 9.64; enhancement of tumour cell killing by radiotherapy (RAD vs drug + RAD) (UT-SCC-74B tumours): significantly enhanced tumour cell killing by radiotherapy; Sensitisation Ratio (HCT116/54C tumours): 6.22; enhancement of tumour killing of radiotherapy (RAD vs drug + RAD) (HCT116/54C tumours): significantly enhanced the tumour killing of radiotherapy; single agent cell kill (HCT116/54C tumours; [10]): 65.7 ± 8.2%
2 | O=[N+]([O-])c1nccn1CS(=O)(=O)NCCO [Compound 5] |  |  |  | 0.23 ± 0.01 | 2.3 ± 0.2 | 10.0 | 1.72 ± 0.06 | >21 | 0.29 ± 0.02 | > 6.2 | 0.24 ± 0.04 | 4.3 ± 0.8 | 17.7 | aqueous solubility [6]: 18 mM (≈ 4.5 mg/mL)
3 | O=[N+]([O-])c1cncn1CS(=O)(=O)NCCO [Compound 7] |  |  |  | 1.4 ± 0.02 | 5.4 ± 0.7 | 4.0 | 1.41 ± 0.02 | 3.3 | 1.4 ± 0.1 | 4.6 ± 0.3 | 1.3 ± 0.04 | 4.2 ± 0.9 | 3.3 | aqueous solubility [6]: 23 mM (≈ 5.76 mg/mL)
4 | O=C(Cn1ccnc1[N+](=O)[O-])NCCO [Compound 2, etanidazole, reference compound] |  |  |  | 1.5 ± 0.3 | > 20 | >13.3 | 1.18 ± 0.00 | >14.8 | 1.7 ± 0.2 | > 25 |  |  |  | AUC [5]: 1820 µM·h; T1/2 [5]: 1.05 h; Cmax [5]: 3640 µM; Sensitisation Ratio (UT-SCC-74B tumours): 8.94; enhancement of tumour cell killing by radiotherapy (RAD vs drug + RAD) (UT-SCC-74B tumours): significantly enhanced tumour cell killing by radiotherapy; single agent cell kill (UT-SCC-74B tumours; [10]): 55.9 ± 1.1%; Sensitisation Ratio (HCT116/54C tumours): 3.34; enhancement of tumour killing of radiotherapy (RAD vs drug + RAD) (HCT116/54C tumours): significantly enhanced the tumour killing of radiotherapy; survival (time to RTV^4) vs radiation alone [7]: significantly increased survival compared to radiation alone

More lines, main results first:

Row | % Stability in αMEM [1] [%] | solubility [2] [mM] | melting point [°C] | SMILES | IC50 (FaDu cells; [8]) [mM] | IC50 (FaDu cells; [9]) [mM] | HCR (FaDu cells) | SER at 1 mM (HCT116/54C cells [3]) | HCR (HCT116/54C cells [4]) | IC50 (HCT116/54C cells [4]; anoxic, read-out: IC50 Anoxic) [mM] | IC50 (HCT116/54C cells [4]; oxic, read-out: IC50 Oxic) [mM] | IC50 (UT-SCC-74B cells; [8]) [mM] | IC50 (UT-SCC-74B cells; [9]) [mM] | HCR (UT-SCC-74B cells) | also measured
5 | 99.3 | 110 (≈ 30.8 mg/mL) | 127 to 129 | O=[N+]([O-])c1nccn1CS(=O)(=O)NCC(O)CO (stereo not shown) [Compound 13, N-(2,3-Dihydroxypropyl)-1-(2-nitro-1H-imidazol-1-yl)methanesulfonamide] | 4.3 ± 0.3 | 8.7 ± 1.1 | 2.0 | 1.00 ± 0.00 | 3.5 | 4.1 ± 0.1 | 14.5 ± 2.9 | 2.6 ± 0.1 | 10.3 ± 1.7 | 4.0 | 
6 | 99.9 | 84.3 (≈ 24.8 mg/mL) | 120 to 123 | O=[N+]([O-])c1nccn1CCS(=O)(=O)NCC(O)CO (stereo not shown) [Compound 15, N-(2,3-Dihydroxypropyl)-2-(2-nitro-1H-imidazol-1-yl)ethane-1-sulfonamide] | 7.3 ± 0.9 | > 25 | >3.4 |  | >1.9 | 12.8 ± 4.4 | > 25 |  |  |  | 
7 | 99.9 | 83 (≈ 27.7 mg/mL) |  | O=[N+]([O-])c1cncn1CCS(=O)(=O)NCCN1CCOCC1 [Compound 16, N-(2-Morpholinoethyl)-2-(5-nitro-1H-imidazol-1-yl)ethane-1-sulfonamide] | 6.1 ± 0.8 | > 16 | >2.6 | 1.31 ± 0.01 | 1.0 | 12.9 ± 0.9 | 12.8 ± 1.5 | 10.3 ± 2.6 | 14.1 ± 2.1 | 1.4 | 
8 | 98.5 | 95.8 (≈ 29.7 mg/mL) | 128 to 131 | O=[N+]([O-])c1nccn1CS(=O)(=O)NC(CO)C(O)CO (stereo not shown) [Compound 14, 1-(2-Nitro-1H-imidazol-1-yl)-N-(1,3,4-trihydroxybutan-2-yl)methanesulfonamide] | 7.9 ± 1.1 | 5.3 ± 1.1 | 0.67 | 1.00 ± 0.00 | 1.3 | 12.6 ± 0.5 | 16.4 ± 3 |  |  |  | 
9 | 100.0 | > 101 | 124 to 127 | O=[N+]([O-])c1nccn1CCNS(=O)(=O)CCO [Compound 17, 2-Hydroxy-N-(2-(2-nitro-1H-imidazol-1-yl)ethyl)ethane-1-sulfonamide] | 2.8 ± 0.6 | > 18 | >6.4 | 1.35 ± 0.02 | >5.3 | 3.2 ± 0.2 | > 17 | 2.9 ± 0.5 | > 20 | >6.8 | 
